Measured values taken from patent US10722496B2, “2-iminobiotin for use in the treatment of brain cell injury” (Neurophyxia B.V., priority 2015, dated 2020).
Several values for one entry are separate records, joined by “and”; a condition that tells them apart may be missing. Equal values may be shown once.

Assays:
IMR-32 cells = assay: Reactive oxygen species (ROS) measurement, H2DCFDA; assay type: cell-based, human
Procedure: (§1) In vitro hypoxia was induced in the cell cultures by using our recently described system with minor modifications (Huang et al., 2013b; Weber et al., 2015; Zitta et al., 2010). Enzyme stock solutions (100×) of catalase and glucose oxidase (both from Sigma-Aldrich) were prepared in cell culture medium (DMEM/F12, 1% FCS; final concentration: 120 U/ml and 2 U/ml respectively; Sigma-Aldrich) leading to a decrease of partial pressure of oxygen (pO2) below 10 mmHg within 5 minutes. Hypoxic conditions were confirmed by using a tissue oxygen pressure monitor (LICOX® CMP Oxygen Catheter; Integra, Plainsboro, USA). After 7 hours of hypoxia, the cells were washed twice with PBS (PAA) and fresh normoxic medium supplemented with solvent (citrate buffer 1%) or 2-IB (10, 30, 50, 100 and 300 ng/mL) was added to the cells. Investigations of cell damage, metabolic activity, ROS, hydrogen peroxide, nitrite/nitrate production, erkl/2, akt and stat5 phosphorylation as well as cell stress protein expression were performed with cell culture media or cell protein (FIG. 1).
For reactive oxygen species (ROS) measurements, 4×10^4 cells were seeded per well and cultured for 3 days in black walled 96-well plates (Greiner Bio-One, Frickenhausen, Germany). After hypoxia, cells were washed with pre-warmed PBS and cultured in a phenol red-free DMEM/F12 medium (Gibco®-invitrogen, NY, USA) with 1% fetal calf serum (PAA) for 17 hours, supplemented with solvent (citrate 1%) or 2-IB (10, 30, 50, 100, 300 ng/ml). Intracellular ROS were measured by adding 2′7′-dichlorodihydrofluorescein diacetate (H2DCFDA, Sigma-Aldrich) to a final concentration of 10 μM which is oxidized to fluorescent dichlorofluorescein (DCF) by intracellular ROS. DCF-loaded cells were kept in the dark at 37° C. and fluorescence was evaluated at an excitation wavelength of 485 nm and emission wavelength of 535 nm using an ELISA reader (Genios F L; Tecan, Crailsheim, Austria). Fluorescence data were acquired at time points 0 (T0) and 30 minutes (T30) and results were calculated as the increment of fluorescence (%) over time [(T30-T0)/T0×100]. Hydrogen peroxide was measured in the culture medium with a Quanti-Chrom™ Peroxide Assay Kit (Bio-Assay Systems, Hayward, USA), which utilizes the chromogenic Fe3+-xylenol orange reaction, in which a purple complex is formed when Fe2+ provided in the reagent is oxidized to Fe3+ by the hydrogen peroxide present in the sample. Briefly, 100 μl of detection reagent were added to 20 μl of culture medium and measurements were performed based on the manufacturer's protocol. Absorbance of the colorimetric samples and standards was measured at 620 nm using an ELISA reader (Tecan, Crailsheim, Germany).

iNOS and nNOS = conditions: Tataranno et al., 2015; cited from earlier work
[1] = test system: cell stress associated proteins; assay: Cell stress proteome profiler array; assay type: cell-based, human; conditions: for ADAMTS1 mean densitometric intensity / Bcl-2 mean densitometric intensity / CA IX mean densitometric intensity / COX-2 mean densitometric intensity / Cited 2 mean densitometric intensity / Cytochrome C mean densitometric intensity / Dkk-4 mean densitometric intensity / FABP-1 mean densitometric intensity / HIF1a mean densitometric intensity / HIF2a mean densitometric intensity / HSP60 mean densitometric intensity / HSP70 mean densitometric intensity / IDO mean densitometric intensity / NFkB1 mean densitometric intensity / PON1 mean densitometric intensity / PON2 mean densitometric intensity / PON3 mean densitometric intensity / PP53 mean densitometric intensity / SIRT2 mean densitometric intensity / SOD2 mean densitometric intensity / Thioredoxin-1 mean densitometric intensity / p21/CIP1 mean densitometric intensity / p27 mean densitometric intensity / pHSP-27 mean densitometric intensity / pJNK mean densitometric intensity / pp38a mean densitometric intensity: 2-IB (30 ng/ml)
Procedure: as §1
Proteome profiling was performed using commercially available cell stress proteome profiler arrays (R&D Systems, Minneapolis, USA) and the manufacturer's protocol provided with the assay kit. Equal amounts (50 μg) of protein from each experiment (N=4) were pooled and applied to the respective array membrane. Expression levels of 26 cell stress associated proteins were evaluated by densitometric analyses of the arrays using the ImageJ 1.410 software (ImageJ, NIH, USA).

[2] = Dose prediction simulations from covariate PK models; parameters: species or system human; Sim. AUCinf when dosing based on Crea0 from Table 6 / Sim. AUCinf when dosing based on eGFR: unit not given here
Procedure: Models were generated in order to determine the impact of dose adjustments and variability of AUC.
[…] and can be easily derived. (D=dose; CL=clearance)
An exploratory covariate analysis was performed looking at body weight, age, eGFR, SeCre, and Core temperature. The model used was as follows:
Dose correction for use at lower temperatures can be determined using the following equation: […]

[3] = 30 ng/ml 2-IB after the hypoxic insult, of 26 proteins

With `N=C1N[C@H]2[C@H](CS[C@H]2CCCCC(=O)O)N1` [2-IB, 2-iminobiotin] the “ROS increase (T30-T0)/T0×100” value (IMR-32 cells; 30 ng/ml 2-IB, hypoxia) was 222.00±52.57%, the “ROS increase (T30-T0)/T0×100” value (IMR-32 cells; 30 ng/ml 2-IB, normoxia) was 118.93±20.09% and the “ROS increase (T30-T0)/T0×100” value (IMR-32 cells; 50 ng/ml 2-IB, hypoxia) was 233.38±53.94%. The “ROS increase (T30-T0)/T0×100” value (IMR-32 cells; 50 ng/ml 2-IB, normoxia) was 154.85±30.83%, the “ROS increase (T30-T0)/T0×100” value (IMR-32 cells; 100 ng/ml 2-IB, hypoxia) was 246.71±58.94% and the “ROS increase (T30-T0)/T0×100” value (IMR-32 cells; 100 ng/ml 2-IB, normoxia) was 128.84±21.94%. The “ROS increase (T30-T0)/T0×100” value (IMR-32 cells; 300 ng/ml 2-IB, hypoxia) was 311.57±79.02%, the “ROS increase (T30-T0)/T0×100” value (IMR-32 cells; 300 ng/ml 2-IB, normoxia) was 141.20±25.35% and the “hypoxia-induced generation of ROS, most efficient concentration” value (IMR-32 cells; 10-300 ng/ml tested) was “most efficiently attenuated with 50 ng/ml 2-IB”. The “inhibition of NO biosynthesis” value (iNOS and nNOS) was “reversible inhibitor of NO biosynthesis, blocking mainly iNOS and nNOS activity”, the “cell stress associated proteins down regulated after hypoxia” value [1, 3] was 3/26 and the “cell stress associated proteins unchanged after hypoxia” value [1, 3] was 4/26. The “cell stress associated proteins up regulated after hypoxia” value [1, 3] was 19/26, the “investigated stress proteins up regulated” value ([1]; 30 ng/ml 2-IB for 4 hours post hypoxia) was 73% and the “ADAMTS1 mean densitometric intensity” value ([1]; Hypoxia) was 9.23. The “Bcl-2 mean densitometric intensity” value ([1]; Hypoxia) was 42.62, the “CA IX mean densitometric intensity” value ([1]; Hypoxia) was 23.02 and the “COX-2 mean densitometric intensity” value ([1]; Hypoxia) was 13.79. For the same molecule, the “Cited 2 mean densitometric intensity” value ([1]; Hypoxia) was 67.91, the “Cytochrome C mean densitometric intensity” value ([1]; Hypoxia) was 108.04 and the “Dkk-4 mean densitometric intensity” value ([1]; Hypoxia) was 3.47. For the same molecule, the “FABP-1 mean densitometric intensity” value ([1]; Hypoxia) was 9.02, the “HIF1a mean densitometric intensity” value ([1]; Hypoxia) was 47.93 and the “HIF2a mean densitometric intensity” value ([1]; Hypoxia) was 0.00. The “HSP60 mean densitometric intensity” value ([1]; Hypoxia) was 150.57, the “HSP70 mean densitometric intensity” value ([1]; Hypoxia) was 170.82 and the “IDO mean densitometric intensity” value ([1]; Hypoxia) was 0.00. For the same molecule, the “NFkB1 mean densitometric intensity” value ([1]; Hypoxia) was 8.63, the “PON1 mean densitometric intensity” value ([1]; Hypoxia) was 0.00 and the “PON2 mean densitometric intensity” value ([1]; Hypoxia) was 20.16. The “PON3 mean densitometric intensity” value ([1]; Hypoxia) was 0.00, the “PP53 mean densitometric intensity” value ([1]; Hypoxia) was 11.92 and the “SIRT2 mean densitometric intensity” value ([1]; Hypoxia) was 171.53. For the same molecule, the “SOD2 mean densitometric intensity” value ([1]; Hypoxia) was 203.11, the “Thioredoxin-1 mean densitometric intensity” value ([1]; Hypoxia) was 147.57 and the “p21/CIP1 mean densitometric intensity” value ([1]; Hypoxia) was 51.41. For the same molecule, the “p27 mean densitometric intensity” value ([1]; Hypoxia) was 4.67, the “pHSP-27 mean densitometric intensity” value ([1]; Hypoxia) was 1.65 and the “pJNK mean densitometric intensity” value ([1]; Hypoxia) was 48.63. For the same molecule, the “pp38a mean densitometric intensity” value ([1]; Hypoxia) was 3.52, the “ADAMTS1 mean densitometric intensity” value ([1]; Normoxia) was 10.32 and the “Bcl-2 mean densitometric intensity” value ([1]; Normoxia) was 32.27. For the same molecule, the “CA IX mean densitometric intensity” value ([1]; Normoxia) was 0.00, the “COX-2 mean densitometric intensity” value ([1]; Normoxia) was 8.91 and the “Cited 2 mean densitometric intensity” value ([1]; Normoxia) was 44.07. For the same molecule, the “Cytochrome C mean densitometric intensity” value ([1]; Normoxia) was 84.87, the “Dkk-4 mean densitometric intensity” value ([1]; Normoxia) was 2.81 and the “FABP-1 mean densitometric intensity” value ([1]; Normoxia) was 6.67. The “HIF1a mean densitometric intensity” value ([1]; Normoxia) was 62.15, the “HIF2a mean densitometric intensity” value ([1]; Normoxia) was 0.00 and the “HSP60 mean densitometric intensity” value ([1]; Normoxia) was 121.73. For the same molecule, the “HSP70 mean densitometric intensity” value ([1]; Normoxia) was 139.78, the “IDO mean densitometric intensity” value ([1]; Normoxia) was 0.00 and the “NFkB1 mean densitometric intensity” value ([1]; Normoxia) was 6.09. For the same molecule, the “PON1 mean densitometric intensity” value ([1]; Normoxia) was 0.00, the “PON2 mean densitometric intensity” value ([1]; Normoxia) was 8.83 and the “PON3 mean densitometric intensity” value ([1]; Normoxia) was 0.00. The “PP53 mean densitometric intensity” value ([1]; Normoxia) was 8.64, the “SIRT2 mean densitometric intensity” value ([1]; Normoxia) was 148.80 and the “SOD2 mean densitometric intensity” value ([1]; Normoxia) was 181.53. For the same molecule, the “Thioredoxin-1 mean densitometric intensity” value ([1]; Normoxia) was 126.34, the “p21/CIP1 mean densitometric intensity” value ([1]; Normoxia) was 43.13 and the “p27 mean densitometric intensity” value ([1]; Normoxia) was 4.51. The “pHSP-27 mean densitometric intensity” value ([1]; Normoxia) was 0.79, the “pJNK mean densitometric intensity” value ([1]; Normoxia) was 39.24 and the “pp38a mean densitometric intensity” value ([1]; Normoxia) was 4.72. For the same molecule, the “Sim. AUCinf when dosing based on 4.8 mg for all” value (from here on “Sim. AUCinf … for all”) ([2]; Table 8, covariate model with Crea0, individual patient (ID 1-8)) was 220 and 292 and 765 and 847 and 642 and 993 and 427 and 266, the “Sim. AUCinf when dosing based on Crea0 from Table 6” value ([2]; Table 8, individual patient (ID 1-8)) was 676 and 494 and 588 and 781 and 692 and 1070 and 722 and 327 and the “Sim. AUCinf … for all” value ([2]; Table 10, covariate model with eGFR, individual patient (ID 1-8)) was 306 and 302 and 814 and 873 and 484 and 856 and 472 and 269. The “Sim. AUCinf … for all” value ([2]; Table 10, Max of 8 patients) was 873, the “Sim. AUCinf when dosing based on eGFR” value ([2]; Table 10, Max of 8 patients) was 922 and the “Sim. AUCinf … for all” value ([2]; Table 10, Mean of 8 patients) was 547. For the same molecule, the “Sim. AUCinf when dosing based on eGFR” value ([2]; Table 10, Mean of 8 patients) was 679, the “Sim. AUCinf … for all” value ([2]; Table 10, Median of 8 patients) was 478 and the “Sim. AUCinf when dosing based on eGFR” value ([2]; Table 10, Median of 8 patients) was 713. For the same molecule, the “Sim. AUCinf … for all” value ([2]; Table 10, Min of 8 patients) was 269, the “Sim. AUCinf when dosing based on eGFR” value ([2]; Table 10, Min of 8 patients) was 415 and the “Sim. AUCinf when dosing based on eGFR” value ([2]; Table 10, individual patient (ID 1-8)) was 802 and 465 and 626 and 806 and 596 and 922 and 800 and 415. For the same molecule, the “CL at 33° relative to the CL at 36°” value ([2]; given the same Crea0, temperature correction equation) was 37%.
